In patent US5932772A, “Separation processes” (Union Carbide Chemicals & Plastics Technology Corporation, priority 1998, dated 1999):
Read-outs that look alike come from different tables or passages of the source.

Experiments:
[1] = Ligand partition coefficient between polar solvent and hexane; type: physicochemical
[2] = Kpartition in hydroformylation catalyst mixture extracted with hexane (layers analyzed for rhodium); type: physicochemical; settings: acetonitrile catalyst solution after 1-dodecene hydroformylation, 74° C, equal volume hexane
Method: To this solution was then charged 5 milliliters of 1-dodecene. The solution was stirred and allowed to equilibrate until no increase in pressure was observed. The reactor was then pressurized to 100 psig with H2 :CO (1:1). Pressure was maintained between 100 and 95 psig until no further reaction had occurred. At this point, the catalyst containing solution was discharged from the reactor. 1.5 milliliters of the catalyst solution was transferred to a vial. To this was added 1.5 milliliters of hexane. The mixture was vigorously shaken for several minutes, then allowed to settle and phase separate. The layers were then separated and analyzed for rhodium content.

[3] = Aldehyde partition coefficient between nonpolar and polar solvent
Method: The efficiency of this extraction process can be measured by a partition coefficient Kp of the one or more products which is defined as follows: [formula]
The vial was shaken vigorously, then allowed to settle. An aliquot from both phases was removed and analyzed for aldehyde via GC. Table H indicates the partition coefficient, which was determined by the ratio of the GC area for the aldehydes (sum of n and iso) in the nonpolar phase to the polar phase.
In this case, the aldehyde contained iso-heptadecanal, n-heptadecanal, and a small amount of C16 alkenes and alkanes. Table H indicates the partition coefficient.
Table H indicates the partition coefficient.
Table H indicates partition coefficient.

[4] = 3-methyl-2-oxazolidinone/hexane, ambient temperature
[5] = DMF/hexane, ambient temperature
[6] = DMSO/hexane, ambient temperature
[7] = acetonitrile/hexane, ambient temperature
[8] = adiponitrile/hexane, ambient temperature
[9] = summary table, acetonitrile and hexane
[10] = caprolactone/hexane, ambient temperature
[11] = 2,2-dimethylbutane/acetonitrile

SMILES | Kpartition [1, 7] | Kpartition [1, 9] | other results
c1ccc(P(c2ccccc2)C2CCCCC2)cc1 [CHDPP, cyclohexyldiphenylphosphine, reference compound] | 0.5 | 0.4 | Kpartition [1, 4]: 1.2; Kpartition [1, 5]: 2; Kpartition [1, 6]: 0.5; Kpartition [1, 8]: 0.4
N#Cc1ccc(P(c2ccc(C#N)cc2)c2ccc(C#N)cc2)cc1 [Ligand A] | 430 | 430 | Kpartition [1, 4]: > 1000; Kpartition [1, 5]: > 1000; Kpartition [1, 6]: > 1000; Kpartition [1, 8]: > 1000; Kpartition [1, 10]: > 1000
N#Cc1cccc(P(c2cccc(C#N)c2)c2cccc(C#N)c2)c1 [Ligand B] | 470 | 470 | Kpartition [1, 5]: 470; Kpartition [1, 6]: 550; Kpartition [1, 10]: 960
O=P(CCP(c1ccccc1)c1ccccc1)(c1ccccc1)c1ccccc1 [Ligand D] | 920 | 920 | Kpartition [1, 5]: 60; Kpartition [1, 6]: 440; Kpartition [1, 10]: 80
O=P(CP(c1ccccc1)c1ccccc1)(c1ccccc1)c1ccccc1 [Ligand E] | 80 | 620 | Kpartition [1, 5]: 50; Kpartition [1, 6]: 620
N#CCCP(CCC#N)CCC#N [Ligand F] | > 100 | > 100 | –
COc1ccc(P(c2ccc(OC)cc2)c2ccc(OC)cc2)cc1 [Ligand G] | 11 | 11 | –
CCCCCCCCCCCCCCP(c1ccc(C#N)cc1)c1ccc(C#N)cc1 [Ligand I] | 7 | 7 | –
OCCCP(c1ccccc1)c1ccccc1 [Ligand J] | 26 | 26 | –
N#CCCP(CCC#N)c1ccccc1 [Ligand L] | > 100 | – | Kpartition [1]: > 100
c1ccc(-c2ccccc2Op2oc3ccccc3c3ccccc3o2)c(Op2oc3ccccc3c3ccccc3o2)c1 [Ligand M] | 25 | 25 | –
N#Cc1cccc(Op2oc3ccccc3c3ccccc3o2)c1 [Ligand N] | 28 | 28 | –
COc1cc(C(C)(C)C)c2op(Oc3ccccc3C#N)oc3c(C(C)(C)C)cc(OC)cc3c2c1 [Ligand O] | 5.2 | 5.2 | –
N#Cc1ccc(Op2oc3ccccc3c3ccccc3o2)cc1 [Ligand P] | 30 | 30 | –
COc1cc(C(C)(C)C)c2op(Oc3ccc([N+](=O)[O-])cc3)oc3c(C(C)(C)C)cc(OC)cc3c2c1 [Ligand Q] | 5.3 | 5.3 | –
O=[N+]([O-])c1ccc(Op2oc3ccccc3c3ccccc3o2)cc1 [Ligand R] | 22 | 22 | Kpartition in catalyst mixture [2]: 5.3
COc1cc(-c2cc(OC)cc(C(C)(C)C)c2Op2oc3ccc(OC)cc3c3cc(OC)ccc3o2)c(Op2oc3ccc(OC)cc3c3cc(OC)ccc3o2)c(C(C)(C)C)c1 [Ligand S] | greater than 100 | – | –
C1CCC(P(C2CCCCC2)C2CCCCC2)CC1 [TCHP, tricyclohexylphosphine, reference compound] | 0.2 | < 0.2 | –
CCCCCCCCP(CCCCCCCC)CCCCCCCC [TOP, tri-n-octylphosphine, reference compound] | < 0.01 | < 0.01 | –
c1ccc(P(c2ccccc2)c2ccccc2)cc1 [TPP, triphenylphosphine, reference compound] | 1.3 | 1.3 | Kpartition [1, 4]: 4.3; Kpartition [1, 5]: 5.9; Kpartition [1, 6]: 2.3; Kpartition [1, 8]: 0.4; Kpartition [1, 10]: 3
CCCCCCCCCCCC=O [dodecanal] | – | – | Kpartition (nonpolar to polar phase) [3, 11]: 4.6; Kpartition (nonpolar to polar phase) ([3]; heptane/acetonitrile): 4.4
CCCCCCCCCCCCCCCCC=O [heptadecanal] | – | – | Kpartition (nonpolar to polar phase) ([3]; hexane/acetonitrile): 5.5
CCCCCCCCCCCCCCC=O [pentadecanal] | – | – | Kpartition (nonpolar to polar phase) ([3]; hexane/acetonitrile): 6.8
CCCCCCCCCCCCC=O [tridecanal] | – | – | Kpartition (nonpolar to polar phase) ([3]; 1-dodecene/acetonitrile): 4.3
CCCCCCCCCCC=O [undecanal] | – | – | Kpartition (nonpolar to polar phase) ([3]; 1-decene/acetonitrile): 2.3; Kpartition (nonpolar to polar phase) [3, 11]: 3.3; Kpartition (nonpolar to polar phase) ([3]; cyclohexane/acetonitrile): 2.0; Kpartition (nonpolar to polar phase) ([3]; hexane/3-methyl-2-oxazolidinone): 2.6; Kpartition (nonpolar to polar phase) ([3]; nonane/acetonitrile): 1.9
